± gives the expanded uncertainty stated by the source.
Legend:
[1] = 298.15 K; 101.33 kPa; Liquid; Pycnometric method
[2] = refractive index (Na D-line) (dimensionless); conditions: 298.15 K; 101.33 kPa; Liquid; Standard Abbe refractometry

Compound	mass density [1] [kg/m3]	refractive index [2]
COCOCOC [2,4,6-trioxaheptane]	957.8 ± 0.3	1.3789 ± 0.0004
CCCCO [butan-1-ol]	805.2 ± 0.3	1.3967 ± 0.0004
O [water]	–	1.3325 ± 0.0004

Source: the NIST ThermoML archive (doi:10.1016/j.fluid.2015.11.009)
